From ChEMBL document CHEMBL4613317, “Substituted Naphthalenediimide Compounds Bind Selectively to Two Human Quadruplex Structures with Parallel Topology” (ACS Med Chem Lett, 2020)
The source made the active and inactive calls. The calls are words filed in the database; no cut-off is given here.

Columns and labels:
[1] = test system: Quadruplex DNA; experiment: Binding affinity to human TERT G4-quadruplex DNA assessed as change in melting temperature by UV-visible spectrophotometry; assay type: nucleic-acid assay
[2] = test system: Quadruplex DNA; experiment: Binding affinity to G-quartet terminal of human TERT G4-quadruplex DNA with parallel topology up to 20 uM by circular dichroism analysis; assay type: nucleic-acid assay
[3] = target: Quadruplex DNA; experiment: Binding affinity to human HTR G4-quadruplex DNA assessed as dissociation equilibrium binding constant by intrinsic fluorescence titration based fluorescence spectrophotometry; assay type: nucleic-acid assay
[4] = test system: Quadruplex DNA; experiment: Induction of parallel human TERRA G4-quadruplex RNA structural changes up to 20 uM by circular dichroism analysis; assay type: nucleic-acid assay
[5] = target: Quadruplex DNA; experiment: Binding affinity to human TERT G4-quadruplex DNA assessed as dissociation equilibrium binding constant by intrinsic fluorescence titration based fluorescence spectrophotometry; assay type: nucleic-acid assay
[6] = species on record: Homo sapiens; experiment: Selectivity index, ratio of Kd for human HTR G4-quadruplex DNA to Kd for human TERT G4-quadruplex DNA by intrinsic fluorescence titration based fluorescence spectrophotometry
[7] = test system: DNA; experiment: Binding affinity to human TERT hairpin duplex DNA assessed as change in melting temperature by UV-visible spectrophotometry; assay type: nucleic-acid assay
[8] = test system: Quadruplex DNA; experiment: Induction of parallel human TERT G4-quadruplex DNA structural changes up to 20 uM by circular dichroism analysis; assay type: nucleic-acid assay
[9] = target: Quadruplex DNA; experiment: Binding affinity to human TERRA G4-quadruplex RNA assessed as dissociation equilibrium binding constant by fluorescence anisotropy titration based fluorescence spectrophotometry; assay type: nucleic-acid assay
[10] = test system: Quadruplex DNA; experiment: Induction of (3+1) hybrid structural changes of human HTR G4-quadruplex DNA to antiparallel structure at 20 uM by circular dichroism analysis; assay type: nucleic-acid assay
[11] = target: Quadruplex DNA; experiment: Binding affinity to biotin-labeled human TERT G4-quadruplex DNA assessed as dissociation equilibrium binding constant by SPR analysis; assay type: nucleic-acid assay
[12] = species on record: Homo sapiens; experiment: Selectivity index, ratio of Kd for human HTR G4-quadruplex DNA to Kd for human TERRA G4-quadruplex RNA by fluorescence spectrophotometry
[13] = target: Quadruplex DNA; experiment: Binding affinity to biotin-labeled human TERRA G4-quadruplex RNA assessed as dissociation equilibrium binding constant by SPR analysis; assay type: nucleic-acid assay
[14] = species on record: Homo sapiens; experiment: Selectivity index, ratio of Kd for biotin-labeled human HTR G4-quadruplex DNA to Kd for biotin-labeled human TERRA G4-quadruplex RNA by SPR analysis
[15] = test system: Quadruplex DNA; experiment: Binding affinity to end quartet of (3+1) hybrid structure of human HTR G4-quadruplex DNA up to 20 uM by circular dichroism analysis; assay type: nucleic-acid assay
[16] = test system: Quadruplex DNA; experiment: Binding affinity to G-quartet terminal of human TERRA G4-quadruplex RNA with parallel topology up to 20 uM by circular dichroism analysis; assay type: nucleic-acid assay
[17] = target: DNA; experiment: Binding affinity to biotin-labeled duplex DNA AAAGAACTTT (unknown origin) assessed as dissociation equilibrium binding constant by SPR analysis; assay type: nucleic-acid assay
[18] = target: Quadruplex DNA; experiment: Binding affinity to biotin-labeled human HTR G4-quadruplex DNA assessed as dissociation equilibrium binding constant by SPR analysis; assay type: nucleic-acid assay
[19] = test system: Quadruplex DNA; experiment: Binding affinity to human HTR G4-quadruplex DNA assessed as change in melting temperature by UV-visible spectrophotometry; assay type: nucleic-acid assay
[20] = species on record: Homo sapiens; experiment: Selectivity index, ratio of Kd for biotin-labeled human HTR G4-quadruplex DNA to Kd for biotin-labeled human TERT G4-quadruplex DNA by SPR analysis

Compound | ΔTm [1] | Activity [2] | Kd [3] | Activity [4] | Kd [5] | Selectivity Index [6] | ΔTm [7] | Activity [8] | Kd [9] | Activity [10] | Kd [11] | Selectivity Index [12] | Kd [13] | Selectivity Index [14] | Activity [15] | Activity [16] | Kd [17] | Kd [18] | ΔTm [19] | Selectivity Index [20]
O=C1c2cc(-c3ccc(CN4CCCC4)cc3)c3c4c(cc(NCCN5CCCC5)c(c24)C(=O)N1CCCN1CCOCC1)C(=O)N(CCCN1CCOCC1)C3=O [QN-302] | 18 °C | Active | 29 nM | inactive | 4 nM | 5 | 2 °C | inactive | 2 nM | Active | 4 nM | 5 | 3 nM | 5 | Active | Active | > 100 nM | 28 nM | 10 °C | 
O=C1c2ccc3c4c(c(NCCN5CCCC5)cc(c24)C(=O)N1CCCN1CCOCC1)C(=O)N(CCCN1CCOCC1)C3=O | 13 °C | Active | 94 nM | inactive | 16 nM |  | 2 °C | inactive | 3 nM | Active | 12 nM | 5 | 4 nM | 5 | Active | Active | > 100 nM | 82 nM | 5 °C | 7
CN1CCN(CCCNc2cc3c4c(c(NCCCN5CCN(C)CC5)cc5c4c2C(=O)N(CCCN2CCOCC2)C5=O)C(=O)N(CCCN2CCOCC2)C3=O)CC1 |  | Active | 10 nM | inactive | 4 nM |  | < 2 °C | inactive | 2 nM | Active | 2 nM |  | 3 nM |  | Active | Active |  | 5 nM | 11 °C | 
